Test results reported in ChEMBL document CHEMBL3233010, “Design, synthesis and biological evaluation of novel 6-alkenylamides substituted of 4-anilinothieno[2,3-d]pyrimidines as irreversible epidermal growth factor receptor inhibitors” (Bioorg Med Chem, 2014).
The source made the active and inactive calls. The rule behind the calls is not given here.

Key:
[1] = biological target: Platelet-derived growth factor receptor alpha (Homo sapiens, UniProt P16234); test: Inhibition of recombinant PDGFRalpha (unknown origin) using Poly(Glu:Tyr)4:1 after 60 mins by ELISA
Ephrin type-A receptor 2 = Ephrin type-A receptor 2 (Homo sapiens, UniProt P29317); test: Inhibition of recombinant EPHA2 (unknown origin) using Poly(Glu:Tyr)4:1 after 60 mins by ELISA
[2] = tested on: Epidermal growth factor receptor (Homo sapiens), P00533 [L858R,T790M]; test: Inhibition of EGFR T790M/L858R double mutant in human NCI-H1975 cells assessed as inhibition of EGF-induced AKT phosphorylation pretreated for 2 hrs followed by EGF challenge by Western blotting analysis; type: cell-based
Epidermal growth factor receptor (Homo sapiens), P00533 [L858R,T790M], sequence (P00533 whole entry T790M/L858R, looked up): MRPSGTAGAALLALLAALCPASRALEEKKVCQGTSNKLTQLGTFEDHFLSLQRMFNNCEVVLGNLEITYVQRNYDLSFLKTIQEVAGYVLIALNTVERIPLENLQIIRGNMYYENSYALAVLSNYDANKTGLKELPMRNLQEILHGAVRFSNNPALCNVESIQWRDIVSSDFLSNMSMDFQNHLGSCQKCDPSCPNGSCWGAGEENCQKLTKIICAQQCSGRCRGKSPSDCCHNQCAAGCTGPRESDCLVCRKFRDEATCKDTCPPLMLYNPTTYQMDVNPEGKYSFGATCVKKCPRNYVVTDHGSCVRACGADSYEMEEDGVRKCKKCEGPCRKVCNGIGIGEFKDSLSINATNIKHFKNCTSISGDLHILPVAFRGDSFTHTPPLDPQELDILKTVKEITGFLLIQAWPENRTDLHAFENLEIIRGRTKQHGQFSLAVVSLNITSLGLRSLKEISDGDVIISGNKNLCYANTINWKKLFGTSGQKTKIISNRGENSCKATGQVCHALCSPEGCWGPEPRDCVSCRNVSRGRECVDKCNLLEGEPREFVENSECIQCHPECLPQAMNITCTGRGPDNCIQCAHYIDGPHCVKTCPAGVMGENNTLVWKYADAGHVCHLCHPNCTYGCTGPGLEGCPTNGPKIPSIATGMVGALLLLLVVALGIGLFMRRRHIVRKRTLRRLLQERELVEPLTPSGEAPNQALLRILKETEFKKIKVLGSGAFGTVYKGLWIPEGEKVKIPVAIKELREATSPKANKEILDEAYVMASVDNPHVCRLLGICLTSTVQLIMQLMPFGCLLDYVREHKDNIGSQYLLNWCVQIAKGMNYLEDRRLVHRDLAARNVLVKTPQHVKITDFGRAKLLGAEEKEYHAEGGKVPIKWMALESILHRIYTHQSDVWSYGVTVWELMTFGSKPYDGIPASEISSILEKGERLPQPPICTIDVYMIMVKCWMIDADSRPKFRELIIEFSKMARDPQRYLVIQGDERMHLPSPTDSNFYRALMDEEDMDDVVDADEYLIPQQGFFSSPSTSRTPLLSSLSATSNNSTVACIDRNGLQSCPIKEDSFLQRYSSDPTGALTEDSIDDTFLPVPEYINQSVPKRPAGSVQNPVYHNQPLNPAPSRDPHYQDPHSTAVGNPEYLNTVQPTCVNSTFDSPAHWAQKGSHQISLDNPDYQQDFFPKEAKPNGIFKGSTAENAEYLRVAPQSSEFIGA

[3] = tested on: Epidermal growth factor receptor (Homo sapiens), P00533 [L858R,T790M]; test: Inhibition of EGF-induced EGFR T790M/L858R double mutant phosphorylation in human NCI-H1975 cells pretreated for 2 hrs followed by EGF challenge by Western blotting analysis; type: cell-based
[4] = biological target: Proto-oncogene tyrosine-protein kinase receptor Ret (Homo sapiens, UniProt P07949); test: Inhibition of recombinant RET (unknown origin) using Poly(Glu:Tyr)4:1 after 60 mins by ELISA
[5] = tested on: Epidermal growth factor receptor (Homo sapiens), P00533 [L858R,T790M]; test: Inhibition of EGFR T790M/L858R double mutant in human NCI-H1975 cells assessed as inhibition of EGF-induced ERK1/2 phosphorylation pretreated for 2 hrs followed by EGF challenge by Western blotting analysis; type: cell-based
[6] = biological target: Receptor tyrosine-protein kinase erbB-2 (Homo sapiens, UniProt P04626); test: Inhibition of ErbB2 (unknown origin) expressed in baculovirus expression system using Poly(Glu:Tyr)4:1 after 60 mins by ELISA
[7] = biological target: Mast/stem cell growth factor receptor Kit (Homo sapiens, UniProt P10721); test: Inhibition of recombinant c-Kit (unknown origin) using Poly(Glu:Tyr)4:1 after 60 mins by ELISA
[8] = biological target: T1, Epidermal growth factor receptor (Homo sapiens, UniProt P00533); test: Inhibition of EGFR in human A431 cells assessed as inhibition of EGF-induced AKT phosphorylation at 0.1 to 1 umol/L pretreated for 2 hrs followed by EGF challenge by Western blotting analysis; type: cell-based; conditions: A-431
T1 sequence (P00533 whole entry): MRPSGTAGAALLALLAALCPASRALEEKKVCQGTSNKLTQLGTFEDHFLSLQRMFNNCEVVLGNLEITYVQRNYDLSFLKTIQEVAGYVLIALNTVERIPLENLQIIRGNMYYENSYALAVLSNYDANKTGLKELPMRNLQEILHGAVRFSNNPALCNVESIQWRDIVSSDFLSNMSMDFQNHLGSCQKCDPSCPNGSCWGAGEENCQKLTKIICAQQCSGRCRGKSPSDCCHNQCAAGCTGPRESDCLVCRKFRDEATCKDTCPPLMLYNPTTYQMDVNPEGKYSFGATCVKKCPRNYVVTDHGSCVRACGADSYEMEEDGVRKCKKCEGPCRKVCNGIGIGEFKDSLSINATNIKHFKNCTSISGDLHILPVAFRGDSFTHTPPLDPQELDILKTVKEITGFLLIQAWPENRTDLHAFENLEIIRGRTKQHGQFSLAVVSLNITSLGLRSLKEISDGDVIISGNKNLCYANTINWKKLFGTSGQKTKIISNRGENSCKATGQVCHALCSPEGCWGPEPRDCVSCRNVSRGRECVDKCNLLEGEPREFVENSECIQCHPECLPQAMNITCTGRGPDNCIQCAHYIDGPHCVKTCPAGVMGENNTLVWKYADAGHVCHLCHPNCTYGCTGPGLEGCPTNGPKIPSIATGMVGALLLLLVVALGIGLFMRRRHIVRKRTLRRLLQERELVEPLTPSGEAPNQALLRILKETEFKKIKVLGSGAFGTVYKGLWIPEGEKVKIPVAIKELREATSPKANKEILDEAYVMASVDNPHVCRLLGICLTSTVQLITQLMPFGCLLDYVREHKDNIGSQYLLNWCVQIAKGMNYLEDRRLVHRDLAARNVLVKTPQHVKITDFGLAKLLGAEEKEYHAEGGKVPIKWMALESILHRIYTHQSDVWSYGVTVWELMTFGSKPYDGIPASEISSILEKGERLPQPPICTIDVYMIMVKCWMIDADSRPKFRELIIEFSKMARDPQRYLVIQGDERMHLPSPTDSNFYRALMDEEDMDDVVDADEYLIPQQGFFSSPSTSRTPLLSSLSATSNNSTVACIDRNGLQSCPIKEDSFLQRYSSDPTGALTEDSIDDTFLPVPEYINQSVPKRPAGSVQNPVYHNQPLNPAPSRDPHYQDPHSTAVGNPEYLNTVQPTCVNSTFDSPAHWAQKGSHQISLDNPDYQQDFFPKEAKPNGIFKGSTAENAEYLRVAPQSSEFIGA

[9] = biological target: Macrophage-stimulating protein receptor (Homo sapiens, UniProt Q04912); test: Inhibition of recombinant RON (unknown origin) using Poly(Glu:Tyr)4:1 after 60 mins by ELISA
Macrophage-stimulating protein receptor, sequence (Q04912 25-304 limits assumed): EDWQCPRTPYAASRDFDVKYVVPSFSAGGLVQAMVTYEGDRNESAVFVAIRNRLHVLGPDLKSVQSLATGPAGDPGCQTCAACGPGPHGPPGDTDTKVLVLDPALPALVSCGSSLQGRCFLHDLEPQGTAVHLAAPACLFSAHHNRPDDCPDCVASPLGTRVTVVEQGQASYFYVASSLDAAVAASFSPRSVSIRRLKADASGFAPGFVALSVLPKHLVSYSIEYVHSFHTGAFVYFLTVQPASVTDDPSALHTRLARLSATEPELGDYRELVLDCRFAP
Macrophage-stimulating protein receptor, sequence (Q04912 310-1400 limits assumed): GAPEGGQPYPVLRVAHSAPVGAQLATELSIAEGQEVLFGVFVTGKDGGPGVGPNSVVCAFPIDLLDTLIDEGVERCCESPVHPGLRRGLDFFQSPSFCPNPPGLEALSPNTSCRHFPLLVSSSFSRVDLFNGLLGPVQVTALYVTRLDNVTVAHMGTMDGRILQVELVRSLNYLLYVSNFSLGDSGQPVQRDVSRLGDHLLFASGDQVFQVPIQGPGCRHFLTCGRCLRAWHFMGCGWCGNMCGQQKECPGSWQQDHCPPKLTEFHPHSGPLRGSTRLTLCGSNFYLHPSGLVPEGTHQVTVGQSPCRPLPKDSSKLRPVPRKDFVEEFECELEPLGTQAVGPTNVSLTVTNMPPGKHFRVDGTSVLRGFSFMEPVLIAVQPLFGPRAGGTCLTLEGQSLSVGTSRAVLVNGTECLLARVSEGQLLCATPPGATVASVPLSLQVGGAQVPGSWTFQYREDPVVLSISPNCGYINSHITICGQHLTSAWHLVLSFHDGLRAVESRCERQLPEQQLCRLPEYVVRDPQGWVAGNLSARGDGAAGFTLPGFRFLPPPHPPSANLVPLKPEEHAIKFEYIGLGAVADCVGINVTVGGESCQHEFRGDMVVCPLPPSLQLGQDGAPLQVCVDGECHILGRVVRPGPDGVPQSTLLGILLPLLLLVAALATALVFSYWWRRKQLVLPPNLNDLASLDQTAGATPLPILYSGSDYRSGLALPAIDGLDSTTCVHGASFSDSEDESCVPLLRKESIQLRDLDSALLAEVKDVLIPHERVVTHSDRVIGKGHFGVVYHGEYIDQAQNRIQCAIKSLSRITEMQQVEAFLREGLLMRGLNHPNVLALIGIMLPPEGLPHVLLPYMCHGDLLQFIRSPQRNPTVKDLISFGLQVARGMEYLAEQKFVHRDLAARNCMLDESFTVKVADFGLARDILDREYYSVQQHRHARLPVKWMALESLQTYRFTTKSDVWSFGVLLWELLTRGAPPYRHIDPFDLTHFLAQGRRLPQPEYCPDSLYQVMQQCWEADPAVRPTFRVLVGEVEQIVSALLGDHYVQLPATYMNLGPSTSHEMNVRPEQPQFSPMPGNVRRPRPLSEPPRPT

[10] = biological target: Epidermal growth factor receptor (Homo sapiens, UniProt P00533, L858R/T790M); test: Inhibition of EGFR T790M/L858R double mutant (unknown origin) expressed in baculovirus expression system using Poly(Glu:Tyr)4:1 substrate after 60 mins by ELISA
[11] = biological target: T1, Epidermal growth factor receptor; test: Inhibition of EGF-induced EGFR autophosphorylation in human A431 cells pretreated for 2 hrs followed by EGF challenge by Western blotting analysis; type: cell-based; conditions: A-431
[12] = biological target: T1, Epidermal growth factor receptor; test: Inhibition of wild type EGFR domain (unknown origin) expressed in baculovirus expression system using Poly(Glu:Tyr)4:1 substrate after 60 mins by ELISA
[13] = biological target: Receptor tyrosine-protein kinase erbB-4 (Homo sapiens, UniProt Q15303); test: Inhibition of recombinant ErbB4 (unknown origin) using Poly(Glu:Tyr)4:1 after 60 mins by ELISA
Receptor tyrosine-protein kinase erbB-4, sequence (Q15303 whole entry): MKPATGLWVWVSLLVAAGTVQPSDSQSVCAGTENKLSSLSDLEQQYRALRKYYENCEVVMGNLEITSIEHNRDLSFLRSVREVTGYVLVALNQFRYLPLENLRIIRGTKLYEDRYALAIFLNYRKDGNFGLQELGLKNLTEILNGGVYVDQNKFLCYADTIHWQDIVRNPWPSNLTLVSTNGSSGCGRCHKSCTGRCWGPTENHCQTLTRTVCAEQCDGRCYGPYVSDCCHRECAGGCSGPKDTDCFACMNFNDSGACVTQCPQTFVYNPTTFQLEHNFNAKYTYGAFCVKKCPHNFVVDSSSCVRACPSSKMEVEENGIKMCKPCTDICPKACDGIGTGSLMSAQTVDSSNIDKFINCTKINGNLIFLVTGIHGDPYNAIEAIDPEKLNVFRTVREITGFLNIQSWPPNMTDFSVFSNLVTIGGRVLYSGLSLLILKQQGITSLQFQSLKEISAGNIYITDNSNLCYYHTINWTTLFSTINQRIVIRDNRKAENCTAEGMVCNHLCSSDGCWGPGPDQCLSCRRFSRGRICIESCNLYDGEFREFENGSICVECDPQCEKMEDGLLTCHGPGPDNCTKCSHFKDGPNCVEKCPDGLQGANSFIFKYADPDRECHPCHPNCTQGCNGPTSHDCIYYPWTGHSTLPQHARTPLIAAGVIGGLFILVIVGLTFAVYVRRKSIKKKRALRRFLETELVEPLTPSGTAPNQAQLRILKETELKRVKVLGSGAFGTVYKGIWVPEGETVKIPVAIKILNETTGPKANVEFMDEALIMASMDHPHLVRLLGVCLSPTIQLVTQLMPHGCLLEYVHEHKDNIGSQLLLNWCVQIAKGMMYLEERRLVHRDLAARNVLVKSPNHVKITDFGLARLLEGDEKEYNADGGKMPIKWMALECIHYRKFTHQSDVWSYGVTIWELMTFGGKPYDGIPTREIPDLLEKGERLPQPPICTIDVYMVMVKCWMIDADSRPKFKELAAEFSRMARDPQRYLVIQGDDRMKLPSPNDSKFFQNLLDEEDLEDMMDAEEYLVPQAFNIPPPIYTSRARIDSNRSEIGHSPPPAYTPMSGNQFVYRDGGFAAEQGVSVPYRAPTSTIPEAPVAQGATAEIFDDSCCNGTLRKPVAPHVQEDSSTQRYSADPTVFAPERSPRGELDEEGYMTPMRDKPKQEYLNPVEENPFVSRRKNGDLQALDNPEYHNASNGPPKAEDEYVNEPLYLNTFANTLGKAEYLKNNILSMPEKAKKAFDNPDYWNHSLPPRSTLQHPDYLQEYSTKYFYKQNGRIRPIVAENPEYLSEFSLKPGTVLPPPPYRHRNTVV

[14] = biological target: Fibroblast growth factor receptor 1 (Homo sapiens, UniProt P11362); test: Inhibition of FGFR1 (unknown origin) expressed in baculovirus expression system using Poly(Glu:Tyr)4:1 after 60 mins by ELISA
[15] = biological target: T1, Epidermal growth factor receptor; test: Inhibition of EGF-induced EGFR autophosphorylation in human A431 cells at 0.1 umol/L pretreated for 2 hrs followed by EGF challenge by Western blotting analysis; type: cell-based; conditions: A-431
[16] = biological target: T1, Epidermal growth factor receptor; test: Inhibition of EGFR in human A431 cells assessed as inhibition of EGF-induced ERK1/2 phosphorylation at 0.1 to 1 umol/L pretreated for 2 hrs followed by EGF challenge by Western blotting analysis; type: cell-based; conditions: A-431
[17] = biological target: Insulin-like growth factor 1 receptor (Homo sapiens, UniProt P08069); test: Inhibition of IGF1R (unknown origin) expressed in baculovirus expression system using Poly(Glu:Tyr)4:1 after 60 mins by ELISA
[18] = biological target: Platelet-derived growth factor receptor beta (Homo sapiens, UniProt P09619); test: Inhibition of recombinant PDGFRbeta (unknown origin) using Poly(Glu:Tyr)4:1 after 60 mins by ELISA
[19] = tested on: Epidermal growth factor receptor (Homo sapiens), P00533 [L858R,T790M]; test: Inhibition of EGF-induced EGFR T790M/L858R double mutant phosphorylation in human NCI-H1975 cells at 0.1 umol/L pretreated for 2 hrs followed by EGF challenge by Western blotting analysis; type: cell-based
[20] = biological target: Tyrosine-protein kinase ABL1 (Homo sapiens, UniProt P00519); test: Inhibition of recombinant ABL (unknown origin) using Poly(Glu:Tyr)4:1 after 60 mins by ELISA
[21] = biological target: Vascular endothelial growth factor receptor 1 (Homo sapiens, UniProt P17948); test: Inhibition of recombinant Flt-1 (unknown origin) using Poly(Glu:Tyr)4:1 after 60 mins by ELISA
A-431 = test: Antiproliferative activity against human A431 cells assessed as growth inhibition after 72 hrs by SRB assay; type: functional, cell-based; conditions: A-431, 72 h
[22] = biological target: Vascular endothelial growth factor receptor 2 (Homo sapiens, UniProt P35968); test: Inhibition of KDR (unknown origin) expressed in baculovirus expression system using Poly(Glu:Tyr)4:1 after 60 mins by ELISA
NCI-H1975 = test: Antiproliferative activity against gefitinib-resistant human NCI-H1975 cells assessed as growth inhibition after 72 hrs by SRB assay; type: functional, cell-based; conditions: NCI-H1975, 72 h

Compound | IC50 [1] [nM] | IC50 (Ephrin type-A receptor 2) [nM] | inhibition [2] | inhibition [3] | IC50 [4] [nM] | inhibition [5] | IC50 [6] [nM] | IC50 [7] [nM] | inhibition [8] | IC50 [9] [nM] | IC50 [10] [nM] | inhibition [11] | IC50 [12] [nM] | IC50 [13] [nM] | IC50 [14] [nM] | inhibition [15] | inhibition [16] | IC50 [17] [nM] | IC50 [18] [nM] | IC50 [20] [nM] | other results
C=CC(=O)Nc1cc2c(Nc3ccc(F)c(Cl)c3)ncnc2s1 | > 10000 | > 10000 | Dose-dependent effect | Dose-dependent effect | 1630 | Dose-dependent effect | 40 | > 10000 | Active | > 10000 | 24 | Dose-dependent effect | 16 | 4 | > 10000 | Active | Active | > 10000 | > 10000 | > 10000 | inhibition [19]: Active; IC50 [21]: > 10000 nM; IC50 (A-431): 730 nM; IC50 [22]: > 10000 nM; IC50 (NCI-H1975): 3000 nM
O=C(/C=C/CN1CC2CCC1C(=O)C2)Nc1cc2c(Nc3ccc(F)c(Cl)c3)ncnc2s1 (centres undefined) | > 10000 | > 10000 | Dose-dependent effect | Dose-dependent effect | > 10000 | Dose-dependent effect | 30 | > 10000 | Active | > 10000 | 4 | Dose-dependent effect | 0.9 | 37 | > 10000 | Active | Active | > 10000 | > 10000 | > 10000 | IC50 [21]: > 10000 nM; IC50 (A-431): 1540 nM; IC50 [22]: > 10000 nM; IC50 (NCI-H1975): 12000 nM
